Measured values from the NIST ThermoML archive (doi:10.1016/j.fluid.2005.02.015).

Tests used:
[1] = xn = mol fraction of the nth substance listed; settings: 298.15 K, 101.33 kPa, Liquid
[2] = refractive index (Na D-line) (dimensionless); settings: 293.15 K; 101.33 kPa; Liquid; Standard Abbe refractometry
[3] = Liquid; for mass density: 298.15 K, 101.33 kPa

CCCCO [butan-1-ol] + CCCCOC(=O)[C@H](C)O
Settings	mass density [kg/m3]
[1], x1 = 1	809.572

CCO [ethanol]
Settings	mass density [kg/m3]	refractive index
[2]	–	1.3614
[3]	789.261	–

Settings	vapor or sublimation pressure [kPa]
[3], 351.44 K	101.33

CCCCOC(=O)[C@H](C)O [butyl L-lactate] + CCCCO
[1]
Settings	mass density [kg/m3]
x2 = 0	982.178
x2 = 0.0989	971.809
x2 = 0.1806	962.459
x2 = 0.2599	952.704
x2 = 0.3973	933.863
x2 = 0.5154	915.521
x2 = 0.5669	906.818
x2 = 0.6645	888.883
x2 = 0.7069	880.503
x2 = 0.7854	863.836
x2 = 0.8546	847.901
x2 = 0.9174	832.199
x2 = 0.9728	817.297

CCO [ethanol] + CCOC(=O)[C@H](C)O
Settings	mass density [kg/m3]
[1], x1 = 1	789.261

CC(C)OC(=O)[C@H](C)O [isopropyl (S)-2-hydroxypropionate] + CC(C)O
[1]
Settings	mass density [kg/m3]
x2 = 0	986.942
x2 = 0.087	976.815
x2 = 0.197	962.69
x2 = 0.281	950.807
x2 = 0.3554	939.404
x2 = 0.542	906.498
x2 = 0.5652	901.903
x2 = 0.6921	874.425
x2 = 0.7733	854.447
x2 = 0.8365	837.361
x2 = 0.8675	828.428
x2 = 0.9249	810.801
x2 = 0.9516	802.104

CCOC(=O)[C@H](C)O [(S)-(-)-ethyl lactate] + CCO
[1]
Settings	mass density [kg/m3]
x2 = 0	1032.94
x2 = 0.1242	1018.42
x2 = 0.2256	1004.73
x2 = 0.312	991.37
x2 = 0.3921	977.447
x2 = 0.5236	950.894
x2 = 0.5735	939.295
x2 = 0.6735	913.364
x2 = 0.7574	887.971
x2 = 0.7941	875.598
x2 = 0.8267	863.971
x2 = 0.8559	852.975
x2 = 0.9578	809.773

CCCCO [butan-1-ol]
Settings	mass density [kg/m3]	refractive index
[2]	–	1.3993
[3]	809.572	–

Settings	vapor or sublimation pressure [kPa]
[3], 390.88 K	101.33

CCOC(=O)[C@H](C)O [(S)-(-)-ethyl lactate]
Settings	mass density [kg/m3]	refractive index
[2]	–	1.4129
[3]	1032.94	–

Settings	vapor or sublimation pressure [kPa]
[3], 427.65 K	101.33

CC(C)O [propan-2-ol]
Settings	mass density [kg/m3]	refractive index
[2]	–	1.3774
[3]	785.428	–

Settings	vapor or sublimation pressure [kPa]
[3], 355.36 K	101.33

CCCCOC(=O)[C@H](C)O [butyl L-lactate]
Settings	mass density [kg/m3]	refractive index
[2]	–	1.4218
[3]	982.178	–

[3]
Settings	vapor or sublimation pressure [kPa]
390 K	10.62
395 K	13.01
400 K	15.8
405 K	19.04
410 K	22.79
415 K	27.09
420 K	32
425 K	37.58
430 K	43.87
435 K	50.94
440 K	58.84
445 K	67.65
450 K	77.41
455 K	88.19
460 K	100.05
460.75 K	101.33

CC(C)O [propan-2-ol] + CC(C)OC(=O)[C@H](C)O
Settings	mass density [kg/m3]
[1], x1 = 1	785.428

CC(C)OC(=O)[C@H](C)O [isopropyl (S)-2-hydroxypropionate]
Settings	mass density [kg/m3]	refractive index
[2]	–	1.4105
[3]	986.942	–

[3]
Settings	vapor or sublimation pressure [kPa]
355 K	7.424
360 K	9.156
365 K	11.22
370 K	13.68
375 K	16.58
380 K	20
385 K	23.99
390 K	28.63
395 K	34.02
400 K	40.24
405 K	47.39
410 K	55.59
415 K	64.93
420 K	75.56
425 K	87.6
430 K	101.19
430.21 K	101.33
